According to patent US12065446B2, “Inhibitors of Bruton's tyrosine kinase and method of their use” (JANSSEN PHARMACEUTICA NV, priority 2015, dated 2024):

Target: unphosphorylated-BTK kinase domain (UP-BTK), GST-tagged human BTK (389-659aa) (Homo sapiens (Human), UniProt Q06187)
Test: BTK kinase lanthascreen binding assay
Settings: competition with 50 nM Tracer 236, 60 minutes; pIC50 = negative log of the IC50 in molar
Experimental: BTK kinase lanthascreen binding assay: A BTK kinase lanthascreen binding assay monitors compound binding to unphosphorylated-BTK kinase domain (UP-BTK), by competing with a fluorescent labeled tracer. […] Data were analyzed using Xlfit™ version 5.3 from ID Business Solutions (Guildford), Microsoft Excel add-in. pIC50 refers to the negative log of the IC50 in molar.

Chain of unphosphorylated-BTK kinase domain (UP-BTK), GST-tagged human BTK (389-659aa) (Q06187 389-659): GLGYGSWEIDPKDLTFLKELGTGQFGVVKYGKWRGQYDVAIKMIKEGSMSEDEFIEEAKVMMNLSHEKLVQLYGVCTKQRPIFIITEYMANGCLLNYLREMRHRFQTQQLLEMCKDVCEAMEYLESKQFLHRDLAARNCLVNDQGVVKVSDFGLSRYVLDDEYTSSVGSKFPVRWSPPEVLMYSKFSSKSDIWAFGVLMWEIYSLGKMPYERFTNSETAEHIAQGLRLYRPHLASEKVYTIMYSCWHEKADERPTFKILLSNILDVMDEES

BTK_I_binding pIC50: 7.11
SMILES: C=CC(=O)N[C@@H]1CC[C@@H](NC(=O)c2sc3nccc4c3c2NC(=O)N4c2ccc(Oc3ccccc3)nc2)C1 (racemic) [Example 188, N-((1RS, 3RS)-3-Acrylamidocyclopentyl)-4-oxo-5-(6-phenoxypyridin-3-yl)-4,5-dihydro-3H-1-thia-3,5,8-triazaacenaphthylene-2-carboxamide]
